Measurements published in patent publication US9499492B2, “4-(ortho)-fluorophenyl-5-fluoropyrimidin-2-yl amines containing a sulfoximine group” (BAYER PHARMA AKTIENGESELLSCHAFT, priority 2012, dated 2016).

Legend:
[1] = target: human carbonic anhydrase-1 (Homo sapiens (Human), UniProt P00915); assay: Carbonic anhydrase assay, carbonic anhydrase-1 (Method 4); assay type: biochemical; conditions: read-out: Inhibition of Carbonic anhydrase-1 IC50
Protocol: (§1) 4. Carbonic Anhydrase Assay
(§2) 2 μL of the test compounds, dissolved in DMSO (100-fold final concentration), in a concentration range of 0.03-10 μmol/L (final), was pipetted as quadruplicates into the wells of a 96-hole microtiter plate. Wells that contained the solvent without test compounds were used as reference values (1. Wells without carbonic anhydrase for correction of the non-enzymatic hydrolysis of the substrate, and 2. Wells with carbonic anhydrase for determining the activity of the non-inhibited enzyme).
(§3) 188 μL of assay buffer (10 mmol/L of Tris/HCl, pH 7.4, 80 mmol/L of NaCl), with or without 3 units/well of carbonic anhydrase-1 [=human carbonic anhydrase-1 (Sigma, #C4396)] in order to determine carbonic anhydrase-1 inhibition or 3 units/well of carbonic anhydrase-2 [=human carbonic anhydrase-2 (Sigma, #C6165)] for measuring carbonic anhydrase-2 inhibition, was pipetted into the wells of the microtiter plate.

[2] = target: human carbonic anhydrase-2 (Homo sapiens (Human), UniProt P00918); assay: Carbonic anhydrase assay, carbonic anhydrase-2 (Method 4); assay type: biochemical; conditions: read-out: Inhibition of Carbonic anhydrase-2 IC50
Protocol: as §1
The principle of the assay is based on the hydrolysis of 4-nitrophenyl acetate by carbonic anhydrases (Pocker & Stone, Biochemistry, 1967, 6, 668), with subsequent photometric determination of the dye product 4-nitrophenolate at 400 nm by means of a 96-channel spectral photometer.
as §2, §3

[3] = In vivo pharmacokinetics in rats (Method 6); conditions: male, Wistar, plasma; rat, iv dosing; read-out: t1/2: terminal half-life from in vivo rat study (converted)
Protocol: 6. In Vivo Pharmacokinetics in Rats
For in vivo pharmacokinetic experiments test compounds were administered to male Wistar rats intravenously at doses of 0.3 to 1 mg/kg formulated as solutions using either rat plasma or solubilizers such as PEG400 in well-tolerated amounts.
For pharmacokinetics after intravenous administration test compounds were given as i.v. bolus and blood samples were taken at 2 min, 8 min, 15 min, 30 min, 45 min, 1 h, 2 h, 4 h, 6 h, 8 h and 24 h after dosing. […] Blood was collected into Lithium-Heparin tubes (Monovetten®, Sarstedt) and centrifuged for 15 min at 3000 rpm. An aliquot of 100 μL from the supernatant (plasma) was taken and precipitated by addition of 400 μL icecold acetonitril and frozen at −20° C. over night. Samples were subsequently thawed and centrifuged at 3000 rpm, 4° C. for 20 minutes. Aliquots of the supernatants were taken for analytical testing using an Agilent 1200 HPLC-system with LCMS/MS detection. PK parameters were calculated by non-compartmental analysis using a PK calculation software.
PK parameters derived from concentration-time profiles after i.v.: CLplasma: Total plasma clearance of test compound (in L/kg/h); CLblood: Total blood clearance of test compound: CLplasma*Cp/Cb (in L/kg/h) with Cp/Cb being the ratio of concentrations in plasma and blood, AUCnorm: Area under the concentration-time curve from t=0 h to infinity (extrapolated) divided by the administered dose (in kg*h/L); t½: terminal half-life (in h).

human carbonic anhydrase-1, sequence (P00915 whole entry): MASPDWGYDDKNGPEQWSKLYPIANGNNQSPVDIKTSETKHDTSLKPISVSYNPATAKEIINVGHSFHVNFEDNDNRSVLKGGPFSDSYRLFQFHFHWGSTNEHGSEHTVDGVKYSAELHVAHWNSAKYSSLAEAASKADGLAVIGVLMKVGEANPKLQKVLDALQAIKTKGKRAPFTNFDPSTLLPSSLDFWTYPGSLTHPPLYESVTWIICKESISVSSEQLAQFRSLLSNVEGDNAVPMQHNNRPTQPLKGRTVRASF

Structure (SMILES) | IC50 [1] [µM] | IC50 [2] [µM] | half-life [3] [min]
CS(=N)(=O)Cc1cc(Nc2ncc(F)c(-c3ccc(F)cc3F)n2)cc(C(F)(F)F)c1 (racemic) [Example 4, (rac)-4-(2,4-Difluorophenyl)-5-fluoro-N-{3-[(S-methylsulfonimidoyl)methyl]-5-(trifluoromethyl)phenyl}pyrimidin-2-amine] | > 10 | > 10 | 270
CS(=O)(Cc1cc(Nc2ncc(F)c(-c3ccc(F)cc3F)n2)cc(C(F)(F)F)c1)=NC(N)=O (racemic) [Example 7, (rac)-1-{[3-{[4-(2,4-Difluorophenyl)-5-fluoropyrimidin-2-yl]amino}-5-(trifluoromethyl)benzyl](methyl)oxido-λ^6-sulfanylidene}urea] | > 10 | > 10 | –
CS(=N)(=O)Cc1cc(Cl)cc(Nc2ncc(F)c(-c3ccc(F)cc3F)n2)c1 (racemic) [Example 15, (rac)-N-{3-chloro-5-[(S-methylsulfonimidoyl)methyl]phenyl}-4-(2,4-difluorophenyl)-5-fluoropyrimidin-2-amine] | > 10 | > 10 | –
CS(=N)(=O)Cc1cc(Nc2ncc(F)c(-c3ccc(F)cc3F)n2)cc(S(F)(F)(F)(F)F)c1 (single isomer, unassigned) [Example 32, 4-(2,4-Difluorophenyl)-5-fluoro-N-{3-[(S-methylsulfonimidoyl)methyl]-5-(pentafluoro-λ^6-sulfanyl)phenyl}pyrimidin-2-amine] | – | – | 900

Further lines, results first:

IC50 [1] [µM] | IC50 [2] [µM] | half-life [3] [min] | Structure (SMILES)
> 10 | > 10 | – | CS(=O)(Cc1cc(Nc2ncc(F)c(-c3ccc(F)cc3F)n2)cc(C(F)(F)F)c1)=NC#N (racemic) [Example 1, (rac)-{[3-{[4-(2,4-Difluorophenyl)-5-fluoropyrimidin-2-yl]amino}-5-(trifluoromethyl)benzyl](methyl)oxido-λ^6-sulfanylidene}cyanamide]
– | – | 258 | CS(=O)(Cc1cc(Nc2ncc(F)c(-c3ccc(F)cc3F)n2)cc(C(F)(F)F)c1)=NC#N (single isomer, unassigned) [Example 2, {[3-{[4-(2,4-Difluorophenyl)-5-fluoropyrimidin-2-yl]amino}-5-(trifluoromethyl)benzyl](methyl)oxido-λ^6-sulfanylidene}cyanamide]
